In brackets after ≈: the same amount, converted by molar mass. Where two headings read alike, the source gives them in different places.
How the values were obtained:
[1] = test system: cancerous and tumorous cells; experiment: tests of carcinostatic effect (several tests including a biological test); details: high dose sometimes leads to less effect than a low dose
Description: The present invention relates to carcinostatic compounds and compositions and a process for producing the same chiefly containing 5-fluorouracil derivatives (hereinafter referred to as 5-FU). 5-FU and its various derivatives are known to act as carcinostatic agents which disrupt cancerous cells or depress the multiplication thereof. […] That is to say, in spite of the fact that a remarkable carcinostatic effect was achnowledged using a low dose, a high dose sometimes leads to less carcinostatic effects than a low dose. […] In general, it can be easily presumed that these acylated 5-FU compounds, having the substituent group of NH, are to be obtained in acylation with the reagents represented by the general formula such as RCOX, wherein R represents an acyl group and X is halogen and (RCO)2 O, wherein R is an acyl group. However, 3-N-acyl-5-FU cannot be obtained directly from 5-FU because the acylation will preferably occur at the 1-position of 5-FU when 5-FU is reacted with the reagents under normal conditions. […]
In addition, the composition has many other advantageous features, e.g., only a low dose is necessary to be effective so that harmful side-effects are avoided as regards the normal cells. […] Furthermore, it is believed that the 5-FU ring is readily incorporated into RNA as a substituent for uracil. […]

Sarcoma 180 = experiment: Carcinostatic effect against Sarcoma 180 of a mouse, and toxicity (Example 5); type: in vivo; details: for toxicity: general debility, decrease in weight and napping; for ratio of tumor in wt.: seven days, Control 1.00
Protocol: Mice were separated into 7 groups of 10 mice. Sarcoma 180, having an initial cell number of 5×10^5, was innoculated hypodermically into each subject. After 24 hours, each composition was given to the subject mouse, except the Control, at the dose as shown in Table 3 for seven (7) consecutive days. On the tenth day from the initial innoculation, each subject was anatomized to examine the tumor weight, the average of which was then compared with that of the Control. Toxicity was also interpreted in view of general debility, decrease in weight and napping. In this test, 3-N-o-toluyl-5-FU was administered orally in the form of powder mixed with water, which was isolated by chromatography from that in oil emulsion.

[2] = test system: AH 130 (tumor cells of liver cancer of a rat); experiment: Carcinostatic effect against AH 130 (tumor cells of liver cancer of a rat), and toxicity (Example 5); type: in vivo; details: for ratio of tumor in wt.: seven days, Control 1.00
Protocol: To further show the advantageous effects of 3-N-o-toluyl-5-FU of the present invention over related compounds known in the art, such as FT-207 and 5-FU, tests were conducted in accordance with the procedures as described below and the results are presented in Tables 3 and 4.
Rats were separated into 7 groups of 10 rats. AH 130, having an initial cell number of 5×10^5, was injected hypodermically into each subject and, after 24 hours, each composition was given to each subject rat at the dose shown in Table 4 for seven (7) consecutive days. On the 10th day from the initial innoculation, each subject was anatomized to examine the tumor weight, the average of which was compared with that of the non-treated Control. In this test, 3-N-o-toluyl-5-FU was also administered orally in the form of powder as in the former test.

Ehrich cancerous cells = experiment: growth inhibition of Ehrich cancerous cells in culture (Example 6); type: cell-based, mouse; details: for MIC / IC50: Mus musculus, 72 h; for IC50: Ehrlich, dose per unit volume effective for 50% of the cells, read-out: ED50 (the source's name)
Protocol: Cancerous cells employed:
(1) Ehrich cancerous cells of mouse;
Each kind of said cancerous cells, having an initial number of 3×10^4 and 4×10^4 was cultured in a nutrient medium on a slide glass in a flat bottle for 24 hours to make more than one sample, respectively; half for 5-FU and the other for 3-N-o-toluyl-5-FU in oil emulsion. Then 5-FU diluted with water of different concentrations and 3-N-o-toluyl-5-FU in oil emulsion of different concentrations was respectively added to the cells of each of said plate to make several different concentrations of said compounds per unit volume of each cell, and the culture was continued for three days. […] As a nutrient medium, MEM S10 or HAM-F S10 was employed.

[3] = test system: human thyroid cancer cells; experiment: growth inhibition of human thyroid cancerous cells in culture (Example 7); type: cell-based; details: for IC50 / MIC: Homo sapiens, 72 h; for IC50: dose per unit volume effective for 50% of the cells, read-out: ED50 (the source's name)
Description: (§1) Included in Tables 5 through 7 for comparison are carcinostatic effect of 3-N-o-toluyl-5-FU on various kinds of cancerous cells. In these tables, MIC represents minimum inhibitory concentration (γ or microgram/ml) required to inhibit the growth of cancerous cells in a culture medium and ED50 (γ or microgram/ml) represents the dose per unit volume effective for 50% of the cells.
(2) Human thyroid cancerous cells; and
(§2) Each kind of said cancerous cells, having an initial number of 3×10^4 and 4×10^4 was cultured in a nutrient medium on a slide glass in a flat bottle for 24 hours to make more than one sample, respectively; half for 5-FU and the other for 3-N-o-toluyl-5-FU in oil emulsion. Then 5-FU diluted with water of different concentrations and 3-N-o-toluyl-5-FU in oil emulsion of different concentrations was respectively added to the cells of each of said plate to make several different concentrations of said compounds per unit volume of each cell, and the culture was continued for three days. The manner of the action of each of said compounds against each of the cells at different concentrations (weight per unit volume of cell) was observed by an inverted phase contrast microscope with the passage of time, as well as the multiplication and the change in morphology of the cells were examined by fixing and staining the cells on the slide glass after a period of three days. As a nutrient medium, MEM S10 or HAM-F S10 was employed. HAM-F S10 is a 10% serum supplemented medium described by Richard G. Ham in 1964, and is sold under the tradename "HAM F12 Nissui" in Japan.
(§3) The molecular weight of 5-FU is about 130 and that of 3-N-o-toluyl-5-FU is about 248. […] Accordingly, as used in the following explanations, the terms "weight concentration" refers to the γgm/ml of each compound used in a given test, and the term "molarity" generally refers to the number of molecules of each compound present in a given amount used in a test.

Leiomyosarcoma cells = experiment: growth inhibition of leiomyosarcoma cells in culture (Example 8); type: cell-based, human; details: for IC50 / MIC: Homo sapiens, 72 h; for IC50: dose per unit volume effective for 50% of the cells, read-out: ED50 (the source's name)
Description: as §1
(3) Leiomyosarcoma cells of human.
as §2, §3

[4] = side-effects on normal cells, mouse foot pad cells (Example 9); type: cell-based; details: mouse, foot pad cells; for cytotoxicity: MIC for Ehlrich cancerous cells versus ED50 for normal cells, read-out: normal cells damaged at the minimum dose inhibiting multiplication of the cancerous cells; for CC50 at 72 h: Table 8, normal cells, procedures of Examples 6-8, read-out: ED50
Protocol: as §2
(§4) Using the same procedures as in Examples 6-8, it was investigated whether the compound of the invention causes side-effects on normal cells.
(§5) ED50 for normal cells mean that this dose will inhibit the normal propagation of 50% of unattacked cells (that is, it may cause a harmful influence upon normal cells), while MIC for cancerous cells means that this dose will inhibit the multiplication of 100% of cancerous cells. Consequently when MIC of a compound for cancerous cells exceeds ED50 of the same for normal cells, it is considered that this compound must have side-effects.

mouse foot pad cells = experiment: as above; type: cell-based; details: for MIC: Mus musculus, 72 h, Table 8, normal cells, procedures of Examples 6-8
Protocol: as §2, §4, §5

[5] = 100 mg/kg daily, total 700 mg/kg
[6] = Tables 3 and 4 (Sarcoma 180 mice and AH 130 rats)
[7] = 30 mg/kg daily, total 210 mg/kg
[8] = Example 9, read-out: MIC for Ehrich cancerous cells
[9] = Table 5, minimum inhibitory concentration, three days, read-out: MIC
[10] = Table 6, minimum inhibitory concentration, three days, read-out: MIC
[11] = Table 7, minimum inhibitory concentration, three days, read-out: MIC
[12] = 200 mg/kg daily, total 1400 mg/kg
[13] = 90 mg/kg daily, total 630 mg/kg

Row | SMILES | toxicity (Sarcoma 180; [5]) | ratio of tumor in wt. (Sarcoma 180; [5]) | toxic side-effects with increasing amount administered (Sarcoma 180; [6]) | toxicity [2, 7] | ratio of tumor in wt. [2, 7] | MIC (Ehrich cancerous cells; [8]) | MIC (Ehrich cancerous cells; [9]) | IC50 (Ehrich cancerous cells; Table 5, three days) | IC50 ([3]; Table 6, three days) | MIC [3, 10] | IC50 (Leiomyosarcoma cells; Table 7, three days) | MIC (Leiomyosarcoma cells; [11]) | cytotoxicity [4] | CC50 at 72 h [4] | MIC (mouse foot pad cells) | further results
1 | Cc1ccccc1C(=O)n1cc(F)c(=O)n(C(=O)c2ccccc2C)c1=O [1,3-di-N-o-toluyl-5-FU] |  |  |  |  |  |  |  |  |  |  |  |  |  |  |  | carcinostatic effect, stability of the effect [1]: extremely unstable
2 | Cc1ccccc1C(=O)n1c(=O)[nH]cc(F)c1=O [3-N-o-toluyl-5-FU, 3-N-o-toluyl-5-fluorouracil] | - | 0.367 | does not produce toxic side-effects | - | 0.84 | 2 µg/mL (≈ 8.06 µM) | 2 µg/mL (≈ 8.06 µM) | 1 µg/mL (≈ 4.03 µM) | 0.6 µg/mL (≈ 2.42 µM) | 1.25 µg/mL (≈ 5.04 µM) | 0.3 µg/mL (≈ 1.21 µM) | 1.25 µg/mL (≈ 5.04 µM) | < 50% | 2.5 µg/mL (≈ 10.1 µM) | 10 µg/mL (≈ 40.3 µM) | toxicity (Sarcoma 180; 50 mg/kg daily, total 350 mg/kg): -; ratio of tumor in wt. (Sarcoma 180; 50 mg/kg daily, total 350 mg/kg, oral powder mixed with water): 0.550; toxicity [2, 5]: -; ratio of tumor in wt. ([2]; 100 mg/kg daily, total 700 mg/kg, oral powder): 0.35; number of molecules for ED50 relative to 5-FU (Ehrich cancerous cells; number of molecules as reference standard): half that of 5-FU; MIC compared with 5-FU (Ehrich cancerous cells; weight concentration and molarity): apparently superior to 5-FU in both weight concentration and molarity; dose in weight concentration for carcinostatic effects, compared with 5-FU ([3]; Table 6): less than half the dose in weight concentration than that of 5-FU; carcinostatic efficacy compared with 5-FU (Leiomyosarcoma cells; weight concentration, Table 7): considerably superior to 5-FU; side-effects compared with 5-FU (mouse foot pad cells; MIC for Ehrich cancerous cells versus ED50 for normal cells): less side-effects than 5-FU
3 | O=c1[nH]cc(F)c(=O)[nH]1 [5-FU, 5-fluorouracil] |  |  | increasing the amount of the compound administered produces toxic results | + | 0.55 | 2.5 µg/mL (≈ 19.2 µM) | 2.5 µg/mL (≈ 19.2 µM) | 1 µg/mL (≈ 7.69 µM) | 1.25 µg/mL (≈ 9.61 µM) | 2.5 µg/mL (≈ 19.2 µM) | 1.25 µg/mL (≈ 9.61 µM) | 2.5 µg/mL (≈ 19.2 µM) | 50% | 2.5 µg/mL (≈ 19.2 µM) | 10 µg/mL (≈ 76.9 µM) | toxicity (Sarcoma 180; 10 mg/kg daily, total 70 mg/kg): -; ratio of tumor in wt. (Sarcoma 180; 10 mg/kg daily, total 70 mg/kg): 0.840; toxicity (Sarcoma 180; [7]): +; ratio of tumor in wt. (Sarcoma 180; [7]): 0.540; toxicity ([2]; 10 mg/kg daily, total 70 mg/kg): -; ratio of tumor in wt. ([2]; 10 mg/kg daily, total 70 mg/kg): 0.72; MIC (Ehrich cancerous cells; Table 9 and text, read-out: MIC (Elrich cancerous cells)): 2.5 µg/mL (≈ 19.2 µM); MIC ([3]; Table 9, read-out: MIC (human thyroid cancerous cells)): 2.5 µg/mL (≈ 19.2 µM); MIC (Leiomyosarcoma cells; Table 9, read-out: MIC (leiomysarcoma)): 2.5 µg/mL (≈ 19.2 µM)
4 | O=c1[nH]c(=O)n(C2CCCO2)cc1F (centres unmarked) [FT-207] | - | 0.516 |  |  |  |  |  |  |  |  |  |  |  |  |  | toxicity (Sarcoma 180; [12]): +; ratio of tumor in wt. (Sarcoma 180; [12]): 0.418; toxic side-effects with increasing amount administered (Sarcoma 180; mouse, in vivo): increasing the amount of the compound administered produces toxic results; toxicity [2, 13]: -; ratio of tumor in wt. [2, 13]: 0.60; toxicity [2, 12]: +; ratio of tumor in wt. [2, 12]: 0.35
